In patent US10112926B2 (priority 2014, dated 2018):
Counter-ions that a name gives are not always drawn.

biological target: Vps34 (Homo sapiens (Human), UniProt Q8NEB9); details: read-out: Assay C VPS34 IC50
Sequence (Q8NEB9 whole entry): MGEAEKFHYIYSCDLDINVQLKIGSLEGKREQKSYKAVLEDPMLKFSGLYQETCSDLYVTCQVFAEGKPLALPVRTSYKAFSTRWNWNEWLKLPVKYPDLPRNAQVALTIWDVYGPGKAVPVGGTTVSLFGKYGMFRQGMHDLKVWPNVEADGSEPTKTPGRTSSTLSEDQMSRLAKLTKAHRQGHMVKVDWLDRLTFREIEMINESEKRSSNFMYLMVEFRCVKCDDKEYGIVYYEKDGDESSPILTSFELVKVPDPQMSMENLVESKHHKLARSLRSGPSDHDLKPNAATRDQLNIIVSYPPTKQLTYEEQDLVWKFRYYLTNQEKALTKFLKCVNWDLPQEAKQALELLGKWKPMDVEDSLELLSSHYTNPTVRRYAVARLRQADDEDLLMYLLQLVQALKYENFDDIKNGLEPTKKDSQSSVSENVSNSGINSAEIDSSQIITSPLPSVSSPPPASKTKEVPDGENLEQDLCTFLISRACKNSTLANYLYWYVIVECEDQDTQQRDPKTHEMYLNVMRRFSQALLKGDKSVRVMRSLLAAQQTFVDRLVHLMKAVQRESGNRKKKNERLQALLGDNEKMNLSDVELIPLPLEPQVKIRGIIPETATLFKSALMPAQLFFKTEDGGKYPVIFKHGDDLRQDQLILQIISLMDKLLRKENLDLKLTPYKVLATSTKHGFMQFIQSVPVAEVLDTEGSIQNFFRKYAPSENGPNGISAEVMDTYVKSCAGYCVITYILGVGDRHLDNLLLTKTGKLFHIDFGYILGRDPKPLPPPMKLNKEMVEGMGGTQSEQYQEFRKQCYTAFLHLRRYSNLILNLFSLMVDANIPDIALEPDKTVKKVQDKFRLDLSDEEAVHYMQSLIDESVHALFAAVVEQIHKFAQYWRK

`Cc1ncc(-c2cc(-c3cc(S(=O)(=O)NCC(C)(C)O)ccc3C)cnc2N)o1` [Example 6, 3-(6-Amino-5-(2-methyloxazol-5-yl)pyridin-3-yl)-N-(2-hydroxy-2-methylpropyl)-4-methylbenzenesulfonamide] and `Cc1cnc(-c2cc(-c3cc(S(=O)(=O)NCC(C)(C)O)ccc3C)cnc2N)s1` [Example 90, 3-(6-Amino-5-(5-methylthiazol-2-yl)pyridin-3-yl)-N-(2-hydroxy-2-methylpropyl)-4-methylbenzenesulfonamide] cannot be ordered by IC50: > 10 µM for the first, > 10 µM for the second.

`Cc1cc(-c2cc(-c3cc(S(=O)(=O)N[C@H]4CC[C@H](N)CC4)ccc3C)cnc2N)on1` [Example 19.3, 3-(6-amino-5-(3-methylisoxazol-5-yl)pyridin-3-yl)-N-(trans-4-aminocyclohexyl)-4-methylbenzenesulfon-amide acetic acid salt] and `Cc1cc(-c2cc(-c3cc(S(=O)(=O)NC4CCOCC4)ccc3C)cnc2N)on1` [Example 37.8, 3-(6-Amino-5-(3-methylisoxazol-5-yl)pyridin-3-yl)-4-methyl-N-(tetrahydro-2H-pyran-4-yl)benzenesulfonamide] cannot be ordered by IC50: > 10 µM for the first, > 10 µM for the second.

`Cc1cc(-c2cc(-c3cc(S(=O)(=O)N[C@@H]4CNC[C@H]4O)ccc3C)cnc2N)on1` [Example 19.4, 3-(6-amino-5-(3-methylisoxazol-5-yl)pyridin-3-yl)-N-(trans-4-hydroxypyrrolidin-3-yl)-4-methylbenzenesulfon-amide acetic acid salt] and `Cc1cc(-c2cc(-c3cc(S(=O)(=O)NCC4(O)CC4)ccc3C)cnc2N)on1` [Example 19.10, 3-(6-amino-5-(3-methylisoxazol-5-yl)pyridin-3-yl)-N-((1-hydroxycyclopropyl)methyl)-4-methylbenzenesulfon-amide trifluoroacetic acid salt] cannot be ordered by IC50: > 10 µM for the first, > 10 µM for the second.

`Cc1cc(-c2cc(-c3cc(S(=O)(=O)N4CCOC[C@@H]4C)ccc3C)cnc2N)on1` [Example 19.5, (S)-5-(2-methyl-5-((3-methylmorpholino)sulfon-yl)phenyl)-3-(3-methylisoxazol-5-yl)pyridin-2-amine trifluoroacetic acid salt] and `Cc1cc(-c2cc(-c3cc(S(=O)(=O)N4CCOC[C@H]4C)ccc3C)cnc2N)on1` [Example 19.6, (R)-5-(2-methyl-5-((3-methylmorpholino)sulfon-yl)phenyl)-3-(3-methylisoxazol-5-yl)pyridin-2-amine trifluoroacetic acid salt] cannot be ordered by IC50: > 10 µM for the first, > 10 µM for the second.

`Cc1cc(-c2cc(-c3cc(S(=O)(=O)N4CCCC(C)(O)CC4)ccc3C)cnc2N)on1` (stereo not drawn) [Example 19.21, 1-((3-(6-amino-5-(3-methylisoxazol-5-yl)pyridin-3-yl)-4-methylphenyl)sulfonyl)-4-methylazepan-4-ol trifluoroacetic acid salt] and `Cc1cc(-c2cc(-c3cc(S(=O)(=O)N4CC[C@@H](O)C4)ccc3C)cnc2N)on1` [Example 37.24, (R)-1-((3-(6-Amino-5-(3-methylisoxazol-5-yl)pyridin-3-yl)-4-methylphenyl)sulfonyl)pyrrolidin-3-ol] cannot be ordered by IC50: > 10 µM for the first, > 10 µM for the second.

`Cc1ccc(S(=O)(=O)NOCC(C)(C)O)cc1-c1cnc(N)c(-c2cnn(CC(F)(F)F)c2)c1` [Example 34, 3-(6-Amino-5-(1-(2,2,2-trifluoroethyl)-1H-pyrazol-4-yl)pyridin-3-yl)-N-(2-hydroxy-2-methylpropoxy)-4-methylbenzenesulfonamide hydrochloride] and `Cc1ccc(S(=O)(=O)NCC(C)(C)O)cc1-c1cnc(N)c(-c2cnco2)c1` [Example 94a, 3-(6-amino-5-(oxazol-5-yl)pyridin-3-yl)-N-(2-hydroxy-2-methylpropyl)-4-methylbenzenesulfonamide] cannot be ordered by IC50: > 10 µM for the first, > 10 µM for the second.

`Cc1cc(-c2cc(-c3cc(S(=O)(=O)NCC4(O)CCCCC4)ccc3C)cnc2N)on1` [Example 37.9] and `Cc1cc(-c2cc(-c3cc(S(=O)(=O)NCC4(O)CCCC4)ccc3C)cnc2N)on1` [Example 53, 3-(6-Amino-5-(3-methylisoxazol-5-yl)pyridin-3-yl)-N-((1-hydroxycyclopentyl)methyl)-4-methylbenzenesulfonamide] cannot be ordered by IC50: > 10 µM for the first, > 10 µM for the second.

`Cc1cc(-c2cc(-c3cc(S(=O)(=O)NCCC4(O)CCCC4)ccc3C)cnc2N)on1` [Example 37.16, 3-(6-Amino-5-(3-methylisoxazol-5-yl)pyridin-3-yl)-N-(2-(1-hydroxycyclopentyl)ethyl)-4-methylbenzenesulfonamide] and `Cc1cc(-c2cc(-c3cc(S(=O)(=O)NCCC4(O)CCCCC4)ccc3C)cnc2N)on1` [Example 37.30, 3-(6-Amino-5-(3-methylisoxazol-5-yl)pyridin-3-yl)-N-(2-(1-hydroxycyclohexyl)ethyl)-4-methylbenzenesulfonamide] cannot be ordered by IC50: > 10 µM for the first, > 10 µM for the second.

`Cc1cc(-c2cc(-c3cc(S(=O)(=O)NCC4(CO)CCCC4)ccc3C)cnc2N)on1` [Example 37.23, 3-(6-Amino-5-(3-methylisoxazol-5-yl)pyridin-3-yl)-N-((1-(hydroxymethyl)cyclopentyl)methyl)-4-methylbenzenesulfonamide] and `Cc1cc(-c2cc(-c3cc(S(=O)(=O)NCC4(CO)COC4)ccc3C)cnc2N)on1` [Example 50, 3-(6-Amino-5-(3-methylisoxazol-5-yl)pyridin-3-yl)-N-((3-(hydroxymethyl)oxetan-3-yl)methyl)-4-methylbenzenesulfonamide] cannot be ordered by IC50: > 10 µM for the first, > 10 µM for the second.

`CCN1CCC[C@@H]1CNS(=O)(=O)c1ccc(C)c(-c2cnc(N)c(-c3cc(C)no3)c2)c1` [Example 37.27, (R)-3-(6-Amino-5-(3-methylisoxazol-5-yl)pyridin-3-yl)-N-((1-ethylpyrrolidin-2-yl)methyl)-4-methylbenzenesulfonamide] and `CCN1CCC[C@H]1CNS(=O)(=O)c1ccc(C)c(-c2cnc(N)c(-c3cc(C)no3)c2)c1` [Example 37.33, (S)-3-(6-Amino-5-(3-methylisoxazol-5-yl)pyridin-3-yl)-N-((1-ethylpyrrolidin-2-yl)methyl)-4-methylbenzenesulfonamide] cannot be ordered by IC50: > 10 µM for the first, > 10 µM for the second.

Going from `Cc1cc(-c2cc(-c3cc(S(=O)(=O)NCC4(O)CCOCC4)ccc3C)cnc2N)on1` [Example 54, 3-(6-Amino-5-(3-methylisoxazol-5-yl)pyridin-3-yl)-N-((4-hydroxytetrahydro-2H-pyran-4-yl)methyl)-4-methylbenzenesulfonamide] to `Cc1ncc(-c2cc(-c3cc(S(=O)(=O)NCC4(CO)COC4)ccc3C)cnc2N)o1` [Example 67, 3-(6-Amino-5-(2-methyloxazol-5-yl)pyridin-3-yl)-N-((3-(hydroxymethyl)oxetan-3-yl)methyl)-4-methylbenzenesulfonamide], the IC50 falls from > 10 µM to 9.5 µM.

Compared with `Cc1ccc(S(=O)(=O)NCC(C)(C)O)cc1-c1cnc(N)c(-c2cnn(C)c2C)c1` [Example 61, 3-(6-Amino-5-(1,5-dimethyl-1H-pyrazol-4-yl)pyridin-3-yl)-N-(2-hydroxy-2-methylpropyl)-4-methylbenzenesulfonamide], `Cc1ncc(-c2cc(-c3cc(S(=O)(=O)NCCCO)ccc3C)cnc2N)o1` [Example 104.6, 3-(6-amino-5-(2-methyloxazol-5-yl)pyridin-3-yl)-N-(3-hydroxypropyl)-4-methylbenzenesulfon-amide] is lower in IC50: > 10 µM for the first, 1.9 µM for the second.

First: Cc1ncc(-c2cc(-c3cc(S(=O)(=O)NCC4(CO)COC4)ccc3C)cnc2N)s1 [Example 68, 3-(6-Amino-5-(2-methylthiazol-5-yl)pyridin-3-yl)-N-((3-(hydroxymethyl)oxetan-3-yl)methyl)-4-methylbenzenesulfonamide]
Second: Cc1ncc(-c2cc(-c3cc(S(=O)(=O)NCC(F)F)ccc3C)cnc2N)o1 [Example 104.10, 3-(6-amino-5-(2-methyloxazol-5-yl)pyridin-3-yl)-N-(2,2-difluoroethyl)-4-methylbenzenesulfon-amide]
The IC50 of the first is 5.6-fold higher: 8.4 µM for the first, 1.5 µM for the second. The second is the more potent here.

First: Cc1noc(-c2cc(-c3cc(S(=O)(=O)NC[C@H]4CCOC4)ccc3C)cnc2N)n1 [Example 86, (R)-3-(6-Amino-5-(3-methyl-1,2,4-oxadiazol-5-yl)pyridin-3-yl)-4-methyl-N-((tetrahydrofuran-3-yl)methyl)benzenesulfonamide]
Second: Cc1ncc(-c2cc(-c3cc(S(=O)(=O)NCC4CC(O)C4)ccc3C)cnc2N)o1 (stereo not drawn) [Example 104.1, 3-(6-amino-5-(2-methyloxazol-5-yl)pyridin-3-yl)-N-((3-hydroxycyclobutyl)methyl)-4-methylbenzenesulfon-amide]
The IC50 of the first is higher: > 10 µM for the first, 1.1 µM for the second.

`Cc1noc(-c2cc(-c3cc(S(=O)(=O)NCC(C)(C)O)c(Cl)cc3C)cnc2N)n1` [Example 89, 5-(6-Amino-5-(3-methyl-1,2,4-oxadiazol-5-yl)pyridin-3-yl)-2-chloro-N-(2-hydroxy-2-methylpropyl)-4-methylbenzenesulfonamide] was tested, and the IC50 was > 10 µM.

biological target: PI 4-kinase beta (Homo sapiens (Human), UniProt Q9UBF8); details: read-out: Assay D PI4Kβ IC50
Sequence (Q9UBF8 whole entry): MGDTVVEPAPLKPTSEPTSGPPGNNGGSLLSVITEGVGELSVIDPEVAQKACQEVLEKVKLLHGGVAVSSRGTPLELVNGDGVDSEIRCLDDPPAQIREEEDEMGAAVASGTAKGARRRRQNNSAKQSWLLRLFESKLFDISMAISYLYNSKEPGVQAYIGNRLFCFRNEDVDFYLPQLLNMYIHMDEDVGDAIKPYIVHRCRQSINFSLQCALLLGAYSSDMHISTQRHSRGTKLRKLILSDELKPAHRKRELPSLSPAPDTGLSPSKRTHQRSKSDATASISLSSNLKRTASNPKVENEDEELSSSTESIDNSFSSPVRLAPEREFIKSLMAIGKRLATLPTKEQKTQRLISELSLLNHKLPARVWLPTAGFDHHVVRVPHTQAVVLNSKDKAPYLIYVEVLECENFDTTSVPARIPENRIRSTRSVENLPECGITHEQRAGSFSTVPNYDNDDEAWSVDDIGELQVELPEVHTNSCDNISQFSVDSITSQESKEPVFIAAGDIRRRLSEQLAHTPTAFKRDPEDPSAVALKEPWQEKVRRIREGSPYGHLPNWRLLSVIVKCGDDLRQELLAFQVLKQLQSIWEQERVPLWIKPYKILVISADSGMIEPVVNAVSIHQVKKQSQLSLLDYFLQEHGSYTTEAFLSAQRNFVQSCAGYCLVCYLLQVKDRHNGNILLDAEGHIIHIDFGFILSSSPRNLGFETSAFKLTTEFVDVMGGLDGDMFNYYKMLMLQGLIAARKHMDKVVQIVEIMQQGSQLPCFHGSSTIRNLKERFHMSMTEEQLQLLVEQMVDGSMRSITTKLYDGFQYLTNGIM

Going from `Cc1cc(-c2cc(-c3cc(S(=O)(=O)N4CC5(CCOC5)C4)ccc3C)cnc2N)on1` [Example 19.1, 5-(5-(6-oxa-2-azaspiro[3.4]octan-2-ylsulfonyl)-2-methylphenyl)-3-(3-methylisoxazol-5-yl)pyridin-2-amine trifluoroacetic acid salt] to `Cc1cc(-c2cc(-c3cc(S(=O)(=O)N4CCNC(=O)C4)ccc3C)cnc2N)on1` [Example 19.17, 4-((3-(6-amino-5-(3-methylisoxazol-5-yl)pyridin-3-yl)-4-methylphenyl)sulfonyl) piperazin-2-one trifluoroacetic acid salt], the IC50 falls from 4 µM to 1.4 µM (2.9-fold).

First: Cc1cc(-c2cc(-c3cc(S(=O)(=O)N4CCCC4(C)C)ccc3C)cnc2N)on1 [Example 19.9, 5-(5-((2,2-dimethylpyrrolidin-1-yl)sulfonyl)-2-methylphenyl)-3-(3-methylisoxazol-5-yl)pyridin-2-amine trifluoroacetic acid salt]
Second: Cc1cc(-c2cc(-c3cc(S(=O)(=O)N4CCC[C@H]4CO)ccc3C)cnc2N)on1 [Example 19.15, (S)-(1-((3-(6-amino-5-(3-methylisoxazol-5-yl)pyridin-3-yl)-4-methylphenyl)sulfonyl)pyrrolidin-2-yl)methanol trifluoroacetic acid salt]
The IC50 of the first is 2.1-fold higher: 1.9 µM for the first, 0.9 µM for the second.
